Results: the kinase profiling compilation of Christmann-Franck et al. (2016)

Assays:
Assay in all cases: KINOMEscan competition binding
Details in all cases: compound 1.0 µM
[1] = test system: PIK3CA (human), P42336 [C420R]
MAP3K13 (human) = MAP3K13 (human) (UniProt O43283)
MAPK15 (human) = MAPK15 (human) (UniProt Q8TD08)
STK32B (human) = STK32B (human) (UniProt Q9NY57)
ACVRL1 (human) = ACVRL1 (human) (UniProt P37023)
MTOR (human) = MTOR (human) (UniProt P42345)
MAPK10 (human) = MAPK10 (human) (UniProt P53779)
TLK1 (human) = TLK1 (human) (UniProt Q9UKI8)
PIK3CB (human) = PIK3CB (human) (UniProt P42338)
LIMK1 (human) = LIMK1 (human) (UniProt P53667)
MYLK4 (human) = MYLK4 (human) (UniProt Q86YV6)
STK4 (human) = STK4 (human) (UniProt Q13043)
MKNK1 (human) = MKNK1 (human) (UniProt Q9BUB5)
MAP3K3 (human) = MAP3K3 (human) (UniProt Q99759)
STK39 (human) = STK39 (human) (UniProt Q9UEW8)
CDC2L2 (human) = CDC2L2 (human) (UniProt Q9UQ88)
FRK (human) = FRK (human) (UniProt P42685)
PKMYT1 (human) = PKMYT1 (human) (UniProt Q99640)
MUSK (human) = MUSK (human) (UniProt O15146)
NUAK2 (human) = NUAK2 (human) (UniProt Q9H093)
[2] = test system: EGFR (human), P00533 [747-751 del / S ins]
FGFR2 (human) = FGFR2 (human) (UniProt P21802)
[3] = test system: PIK3CA (human), P42336 [H1047L]
CDC42BPA (human) = CDC42BPA (human) (UniProt Q5VT25)
PLK3 (human) = PLK3 (human) (UniProt Q9H4B4)
ULK2 (human) = ULK2 (human) (UniProt Q8IYT8)
MERTK (human) = MERTK (human) (UniProt Q12866)
SRC (human) = SRC (human) (UniProt P12931)
EPHA4 (human) = EPHA4 (human) (UniProt P54764)
MAPK7 (human) = MAPK7 (human) (UniProt Q13164)
EPHB2 (human) = EPHB2 (human) (UniProt P29323)
MYLK2 (human) = MYLK2 (human) (UniProt Q9H1R3)
BUB1 (human) = BUB1 (human) (UniProt O43683)
GSK3B (human) = GSK3B (human) (UniProt P49841)
[4] = test system: EIF2AK4 KD2 (human), Q9P2K8 [S808G]
[5] = test system: RET (human), P07949 [V804M]
EPHB6 (human) = EPHB6 (human) (UniProt O15197)
CAMK1D (human) = CAMK1D (human) (UniProt Q8IU85)
BMPR1B (human) = BMPR1B (human) (UniProt O00238)

Sequence of BUB1 (human) (O43683 whole entry, looked up): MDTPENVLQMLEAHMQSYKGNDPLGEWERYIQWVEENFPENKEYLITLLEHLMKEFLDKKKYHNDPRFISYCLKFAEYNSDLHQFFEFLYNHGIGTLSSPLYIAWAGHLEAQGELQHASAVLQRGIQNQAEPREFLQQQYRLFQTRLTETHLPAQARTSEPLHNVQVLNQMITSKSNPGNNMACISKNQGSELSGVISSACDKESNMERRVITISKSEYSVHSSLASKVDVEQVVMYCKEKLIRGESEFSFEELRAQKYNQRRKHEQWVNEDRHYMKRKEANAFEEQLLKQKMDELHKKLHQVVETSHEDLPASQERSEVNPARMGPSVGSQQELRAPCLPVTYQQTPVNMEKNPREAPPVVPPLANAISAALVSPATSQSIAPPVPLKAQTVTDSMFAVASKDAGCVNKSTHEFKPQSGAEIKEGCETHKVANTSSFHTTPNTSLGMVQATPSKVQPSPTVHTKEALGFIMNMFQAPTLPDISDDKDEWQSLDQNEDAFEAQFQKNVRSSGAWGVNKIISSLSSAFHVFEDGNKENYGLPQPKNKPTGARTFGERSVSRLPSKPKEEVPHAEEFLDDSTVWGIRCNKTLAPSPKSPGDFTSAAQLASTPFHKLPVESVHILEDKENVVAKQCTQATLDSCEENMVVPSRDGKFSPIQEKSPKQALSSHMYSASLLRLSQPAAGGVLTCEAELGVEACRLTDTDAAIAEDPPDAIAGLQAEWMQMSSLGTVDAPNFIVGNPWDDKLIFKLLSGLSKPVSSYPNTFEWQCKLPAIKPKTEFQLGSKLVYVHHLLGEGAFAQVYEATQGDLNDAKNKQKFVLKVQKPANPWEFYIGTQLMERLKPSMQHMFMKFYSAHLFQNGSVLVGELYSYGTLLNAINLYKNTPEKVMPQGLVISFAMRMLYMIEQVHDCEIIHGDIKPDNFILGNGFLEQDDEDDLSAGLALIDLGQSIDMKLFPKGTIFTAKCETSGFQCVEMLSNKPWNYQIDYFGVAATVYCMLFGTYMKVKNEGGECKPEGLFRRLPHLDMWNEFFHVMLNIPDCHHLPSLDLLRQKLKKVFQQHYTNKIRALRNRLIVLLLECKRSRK
Sequence of PIK3CB (human) (P42338 whole entry, looked up): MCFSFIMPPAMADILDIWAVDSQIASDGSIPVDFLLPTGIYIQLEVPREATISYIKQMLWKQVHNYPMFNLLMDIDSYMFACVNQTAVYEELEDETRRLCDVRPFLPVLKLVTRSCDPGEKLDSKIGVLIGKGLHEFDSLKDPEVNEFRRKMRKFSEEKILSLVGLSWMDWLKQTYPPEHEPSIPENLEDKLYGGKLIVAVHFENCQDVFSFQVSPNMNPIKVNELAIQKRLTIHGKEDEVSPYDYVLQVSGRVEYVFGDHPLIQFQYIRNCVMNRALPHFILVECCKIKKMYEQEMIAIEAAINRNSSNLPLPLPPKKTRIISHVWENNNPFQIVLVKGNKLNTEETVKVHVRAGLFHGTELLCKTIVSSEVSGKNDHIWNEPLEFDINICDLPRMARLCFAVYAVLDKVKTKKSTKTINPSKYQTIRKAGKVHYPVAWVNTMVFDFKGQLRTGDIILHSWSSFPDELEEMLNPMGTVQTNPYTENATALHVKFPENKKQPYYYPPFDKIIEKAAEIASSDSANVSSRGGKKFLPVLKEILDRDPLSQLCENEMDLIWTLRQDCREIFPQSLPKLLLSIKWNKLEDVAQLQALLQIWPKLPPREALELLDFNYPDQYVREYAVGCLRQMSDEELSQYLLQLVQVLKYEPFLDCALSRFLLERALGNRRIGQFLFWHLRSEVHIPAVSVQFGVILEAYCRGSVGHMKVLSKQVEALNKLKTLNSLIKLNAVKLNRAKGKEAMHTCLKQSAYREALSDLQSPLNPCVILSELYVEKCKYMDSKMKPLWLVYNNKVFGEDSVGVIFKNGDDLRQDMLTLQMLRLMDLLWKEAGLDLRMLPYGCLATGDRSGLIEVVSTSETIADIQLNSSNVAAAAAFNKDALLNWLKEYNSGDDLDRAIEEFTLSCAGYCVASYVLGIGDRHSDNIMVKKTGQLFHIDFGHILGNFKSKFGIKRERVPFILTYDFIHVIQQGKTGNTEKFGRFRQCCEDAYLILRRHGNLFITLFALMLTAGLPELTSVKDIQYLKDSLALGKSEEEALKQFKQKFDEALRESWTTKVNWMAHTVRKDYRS
Sequence of MAP3K13 (human) (O43283 whole entry, looked up): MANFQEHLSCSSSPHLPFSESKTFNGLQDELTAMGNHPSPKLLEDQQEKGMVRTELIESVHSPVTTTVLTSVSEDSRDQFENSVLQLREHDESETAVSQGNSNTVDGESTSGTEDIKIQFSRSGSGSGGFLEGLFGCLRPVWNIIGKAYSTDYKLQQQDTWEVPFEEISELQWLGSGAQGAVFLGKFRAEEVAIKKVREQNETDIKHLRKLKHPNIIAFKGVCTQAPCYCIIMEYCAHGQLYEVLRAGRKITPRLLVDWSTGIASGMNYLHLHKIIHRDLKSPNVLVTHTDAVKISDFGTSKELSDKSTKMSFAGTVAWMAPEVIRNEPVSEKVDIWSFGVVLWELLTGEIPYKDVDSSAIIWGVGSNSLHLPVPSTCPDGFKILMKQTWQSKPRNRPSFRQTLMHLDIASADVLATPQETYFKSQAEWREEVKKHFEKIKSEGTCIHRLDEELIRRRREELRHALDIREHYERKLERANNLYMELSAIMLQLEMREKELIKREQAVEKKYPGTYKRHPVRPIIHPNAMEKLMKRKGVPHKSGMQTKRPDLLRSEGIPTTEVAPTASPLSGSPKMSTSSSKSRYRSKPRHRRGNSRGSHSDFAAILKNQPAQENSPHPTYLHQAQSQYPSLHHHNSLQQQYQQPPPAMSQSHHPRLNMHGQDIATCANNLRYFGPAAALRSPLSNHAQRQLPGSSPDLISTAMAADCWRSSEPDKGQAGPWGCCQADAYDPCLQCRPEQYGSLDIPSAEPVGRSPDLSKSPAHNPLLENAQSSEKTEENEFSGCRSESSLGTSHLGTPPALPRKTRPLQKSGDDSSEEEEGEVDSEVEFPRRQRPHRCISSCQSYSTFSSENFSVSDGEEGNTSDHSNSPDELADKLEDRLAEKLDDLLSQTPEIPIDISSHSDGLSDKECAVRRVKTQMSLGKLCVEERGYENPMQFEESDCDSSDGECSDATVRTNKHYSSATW
Sequence of CAMK1D (human) (Q8IU85 whole entry, looked up): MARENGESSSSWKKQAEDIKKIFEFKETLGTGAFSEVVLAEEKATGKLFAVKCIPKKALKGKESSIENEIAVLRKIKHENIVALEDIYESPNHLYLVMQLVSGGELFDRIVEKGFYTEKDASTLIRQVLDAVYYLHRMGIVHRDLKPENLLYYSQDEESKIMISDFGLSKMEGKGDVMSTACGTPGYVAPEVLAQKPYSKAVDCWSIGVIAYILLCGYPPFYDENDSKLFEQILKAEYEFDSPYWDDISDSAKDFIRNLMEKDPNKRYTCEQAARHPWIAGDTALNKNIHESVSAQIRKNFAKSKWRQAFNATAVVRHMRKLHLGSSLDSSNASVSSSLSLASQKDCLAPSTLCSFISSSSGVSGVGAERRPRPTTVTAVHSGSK
Sequence of LIMK1 (human) (P53667 whole entry, looked up): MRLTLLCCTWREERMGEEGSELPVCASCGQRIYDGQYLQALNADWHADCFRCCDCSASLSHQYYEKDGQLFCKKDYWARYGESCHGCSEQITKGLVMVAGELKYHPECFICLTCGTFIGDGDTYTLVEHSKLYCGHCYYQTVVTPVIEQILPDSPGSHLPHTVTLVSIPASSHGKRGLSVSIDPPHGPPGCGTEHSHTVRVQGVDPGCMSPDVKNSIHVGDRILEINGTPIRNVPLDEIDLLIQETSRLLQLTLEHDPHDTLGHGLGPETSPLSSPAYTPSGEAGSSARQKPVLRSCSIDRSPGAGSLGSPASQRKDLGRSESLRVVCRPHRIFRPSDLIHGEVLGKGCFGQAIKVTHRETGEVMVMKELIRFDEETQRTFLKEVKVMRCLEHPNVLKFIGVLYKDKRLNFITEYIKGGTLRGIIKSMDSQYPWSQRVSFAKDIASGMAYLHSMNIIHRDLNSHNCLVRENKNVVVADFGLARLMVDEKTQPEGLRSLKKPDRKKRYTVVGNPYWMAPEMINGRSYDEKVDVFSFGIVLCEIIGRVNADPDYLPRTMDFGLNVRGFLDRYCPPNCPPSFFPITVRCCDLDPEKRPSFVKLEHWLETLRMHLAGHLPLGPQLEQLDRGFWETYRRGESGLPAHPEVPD
Sequence of TLK1 (human) (Q9UKI8 whole entry, looked up): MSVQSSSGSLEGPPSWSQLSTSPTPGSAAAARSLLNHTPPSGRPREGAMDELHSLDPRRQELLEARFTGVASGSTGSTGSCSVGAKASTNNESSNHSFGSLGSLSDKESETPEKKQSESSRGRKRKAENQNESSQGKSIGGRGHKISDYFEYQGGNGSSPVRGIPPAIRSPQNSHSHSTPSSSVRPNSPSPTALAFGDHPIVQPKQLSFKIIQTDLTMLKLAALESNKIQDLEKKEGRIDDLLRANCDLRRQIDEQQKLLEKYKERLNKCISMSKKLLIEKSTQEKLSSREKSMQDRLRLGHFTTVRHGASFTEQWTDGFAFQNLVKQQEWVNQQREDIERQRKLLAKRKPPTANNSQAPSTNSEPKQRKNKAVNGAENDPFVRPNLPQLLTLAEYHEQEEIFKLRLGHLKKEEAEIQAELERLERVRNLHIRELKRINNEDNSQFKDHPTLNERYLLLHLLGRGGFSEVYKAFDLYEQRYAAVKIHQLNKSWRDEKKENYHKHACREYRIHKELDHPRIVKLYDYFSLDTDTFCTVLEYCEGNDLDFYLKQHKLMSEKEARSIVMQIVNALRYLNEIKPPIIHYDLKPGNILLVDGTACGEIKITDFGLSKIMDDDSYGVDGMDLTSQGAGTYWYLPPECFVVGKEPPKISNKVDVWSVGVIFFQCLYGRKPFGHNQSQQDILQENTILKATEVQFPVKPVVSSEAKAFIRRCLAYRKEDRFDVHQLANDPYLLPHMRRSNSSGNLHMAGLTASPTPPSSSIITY

Work on `CNc1nc(Nc2ccc(C(=O)N3CCOCC3)cc2OC)ncc1Cl` yielded a kinase still bound, per cent of control [1] of 85%, a kinase still bound, per cent of control (MAP3K13 (human)) of 100% and a kinase still bound, per cent of control (MAPK15 (human)) of 100%. It also gave a kinase still bound, per cent of control (STK32B (human)) of 99%, a kinase still bound, per cent of control (ACVRL1 (human)) of 100% and a kinase still bound, per cent of control (MTOR (human)) of 100%. The kinase still bound, per cent of control (MAPK10 (human)) was 42%, the kinase still bound, per cent of control (TLK1 (human)) was 93% and the kinase still bound, per cent of control (PIK3CB (human)) was 100%. It also gave a kinase still bound, per cent of control (LIMK1 (human)) of 91%, a kinase still bound, per cent of control (MYLK4 (human)) of 100% and a kinase still bound, per cent of control (STK4 (human)) of 100%. The kinase still bound, per cent of control (MKNK1 (human)) was 88%, the kinase still bound, per cent of control (MAP3K3 (human)) was 56% and the residual activity (STK39 (human)) was 100%. For the same compound, the residual activity (CDC2L2 (human)) was 100%, the kinase still bound, per cent of control (FRK (human)) was 63% and the kinase still bound, per cent of control (PKMYT1 (human)) was 97%. For the same compound, the kinase still bound, per cent of control (MUSK (human)) was 100%, the kinase still bound, per cent of control (NUAK2 (human)) was 100% and the kinase still bound, per cent of control [2] was 100%. The kinase still bound, per cent of control (FGFR2 (human)) was 100%, the kinase still bound, per cent of control [3] was 100% and the kinase still bound, per cent of control (CDC42BPA (human)) was 97%. It also gave a kinase still bound, per cent of control (PLK3 (human)) of 100%, a kinase still bound, per cent of control (ULK2 (human)) of 85% and a kinase still bound, per cent of control (MERTK (human)) of 100%. It also gave a kinase still bound, per cent of control (SRC (human)) of 100%, a kinase still bound, per cent of control (EPHA4 (human)) of 100% and a kinase still bound, per cent of control (MAPK7 (human)) of 98%. It also gave a kinase still bound, per cent of control (EPHB2 (human)) of 100%, a kinase still bound, per cent of control (MYLK2 (human)) of 100% and a kinase still bound, per cent of control (BUB1 (human)) of 100%. For the same compound, the kinase still bound, per cent of control (GSK3B (human)) was 97%, the kinase still bound, per cent of control [4] was 85% and the kinase still bound, per cent of control [5] was 92%. It also gave a kinase still bound, per cent of control (EPHB6 (human)) of 100%, a kinase still bound, per cent of control (CAMK1D (human)) of 100% and a kinase still bound, per cent of control (BMPR1B (human)) of 100%.
